As usually defined, the IC50 is the concentration at which inhibition is half-maximal.

Read-outs that look alike come from different tables or passages of the source.

The record followed here is US20060247303A1, “7H-dibenzo[b,g][1,5]dioxocin-5-one derivatives and use thereof” (BAYER HEALTHCARE AG, priority 2002, published 2006).

The target of one test is T1, CETP (Homo sapiens, UniProt P11597).
T1 construct: enriched CETP fraction, obtained from human plasma by means of hydrophobic chromatography; from tissue; host or cells: human plasma
T1 sequence (P11597 18-493): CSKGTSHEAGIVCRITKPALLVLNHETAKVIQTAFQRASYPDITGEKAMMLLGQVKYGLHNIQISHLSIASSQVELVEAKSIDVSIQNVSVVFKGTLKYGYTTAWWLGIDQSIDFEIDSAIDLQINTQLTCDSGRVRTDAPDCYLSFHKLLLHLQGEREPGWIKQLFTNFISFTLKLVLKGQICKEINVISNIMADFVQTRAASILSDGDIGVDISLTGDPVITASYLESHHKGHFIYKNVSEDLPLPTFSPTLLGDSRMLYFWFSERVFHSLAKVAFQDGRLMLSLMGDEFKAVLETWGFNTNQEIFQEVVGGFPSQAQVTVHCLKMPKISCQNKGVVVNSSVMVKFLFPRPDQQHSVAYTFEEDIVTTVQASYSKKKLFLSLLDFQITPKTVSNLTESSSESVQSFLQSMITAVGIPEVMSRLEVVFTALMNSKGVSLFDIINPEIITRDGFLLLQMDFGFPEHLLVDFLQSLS
The experiment in a line: CETP fluorescence test. The test is classed as biochemical. To be noted: CETP from human plasma, transfer of fluorescent cholesterol ester between liposomes, 37° C., 4 hours; read-out: IC50 [nM] Fluor. test. The method, then: CETP is obtained in partially purified form from human plasma by differential centrifugation and column chromatography and used for the test. To this end, human plasma is adjusted to a density of 1.21 g per ml using NaBr and centrifuged at 4° C. at 50 000 rpm for 18 h. The bottom fraction (d>1.21 g/ml) is applied to a Sephadex® Phenyl-Sepharose 4B (Pharmacia) column, washed with 0.15 M NaCl/0.001 M tris HCl pH 7.4 and then eluted with distilled water. The CETP-active fractions are pooled, dialysed against 50 mM sodium acetate pH 4.5 and applied to a CM-Sepharose® column (Pharmacia). The mixture is then eluted using a linear gradient (0-1 M NaCl). The pooled CETP fractions are dialysed against 10 mM Tris HCl pH 7.4 and then further purified by chromatography on a Mono Q® column (Pharmacia).
Measurement of the CETP-catalysed transfer of a fluorescent cholesterol ester between liposomes—modified according to the procedure of Bisgaier et al., J. Lipid Res. 34, 1625 (1993):
For the production of the donor liposomes, 1 mg of cholesteryl 4,4-difluoro-5,7-dimethyl-4-bora-3a,4a-diaza-s-indacene-3-dodecanoate (cholesteryl BODIPY® FL C12, Molecular Probes) is dissolved in 600 μl of dioxane with 5.35 mg of triolein and 6.67 mg of phosphatidylcholine with gentle warming in an ultrasonic bath and this solution is added very slowly with ultrasonication to 63 ml of 50 mM tris/HCl, 150 mM NaCl, 2 mM EDTA buffer pH 7.3 at RT.
The suspension is then ultrasonicated under an N2 atmosphere for 30 minutes in the Braukson ultrasonic bath at about 50 watts, the temperature being kept at about 20° C.
The acceptor liposomes are obtained analogously from 86 mg of cholesteryl oleate, 20 mg of triolein and 100 mg of phosphatidylcholine dissolved in 1.2 ml of dioxane and 114 ml of above buffer by ultrasonication at 50 watts (20° C.) for 30 minutes.
For testing, a test mix consisting of 1 part of above buffer, 1 part of donor liposomes and 2 parts of acceptor liposomes is used.
80 μl of test mix are treated with 1-3 μg of enriched CETP fraction, obtained from human plasma by means of hydrophobic chromatography, and 2 μl of the substance to be investigated in DMSO and incubated at 37° C. for 4 hours.
The change in the fluorescence at 485/535 nm is a measure of the CE transfer; the inhibition of the transfer in comparison to the control batch without substance is determined.

Another test has as its system HDL. In words: Measurement of the in vivo activity in transgenic hCETP mice. Conditions: stomach tube. The protocol: In experiments for the determination of the oral action on lipoproteins and triglycerides, test substance is administered to transgenic mice [Dinchuck et al., BBA, 1295-301 (1995)] using a stomach tube. Before the start of the experiment, blood is taken from the mice retro-orbitally in order to determine cholesterol and triglycerides in the serum. The serum is obtained as described above for hamsters by incubation at 4° C. overnight and subsequent centrifugation at 6000×g. […] The change in the parameters measured are expressed as the percentage change compared with the starting value.

Test [1] concerns the target T2, CETP activity in the serum (Homo sapiens, UniProt P11597).
T2 construct: from tissue; host or cells: serum of transgenic hCETP mice
T2 sequence (P11597 18-493): T1 sequence (P11597 18-493)
The experiment in a line: Measurement of the ex vivo activities on transgenic hCETP mice. To be noted: mouse, 30 mg/kg oral, serum cholesteryl ester transport. The test is classed as in vivo. The protocol:
To test for CETP-inhibitory activity, the substances are administered orally using a stomach tube to transgenic hCETP mice bred in-house (Dinchuk et al. BBA (1995) 1295-301). To this end, male animals are randomly assigned to groups having an equal number of animals, as a rule n=3, one day before the start of the experiment. Before administration of the substance, blood is taken from each mouse by puncture of the retro-orbital venous plexus for the determination of its basal CETP activity in the serum (T1). The test substance is then administered to the animals using the stomach tube. At specific times after administration of the test substance, blood is taken from the animals by puncture a second time (T2), as a rule 0.5, or 1 and 2 h after substance administration, but if appropriate this can also be carried out at another time.
In order to be able to assess the inhibitory activity of a substance, for each time, i.e. 0.5 or 1 or 2 h, a corresponding control group is employed whose animals only receive the formulating agent without substance. In the control animals, the second blood sampling per animal is carried out as in the substance-treated animals in order to be able to determine the change in the CETP activity without inhibitor over the corresponding experimental time interval (0.5, 1 or 2 h).
After termination of the clotting, the blood samples are centrifuged and the serum is removed by pipette.
For the determination of the CETP activity, the cholesteryl ester transport over 4 h is determined. To this end, as a rule 2 μl of serum are employed in the test batch and the test is carried out as described under “CETP fluorescence test”.
The differences in the cholesteryl ester transport [pM CE*/h (T2)−pM CE*/h (T1)] are calculated for each animal and averaged in the groups. A substance which at one of the times reduces the cholesteryl ester transport by >30% is regarded as active.

The subject of a further test is HDL cholesterol. The experiment in a line: Measurement of the in vivo activity in Syrian golden hamsters. To be noted: peroral. The protocol: In experiments for the determination of the oral action on lipoproteins and triglycerides, test substance dissolved in DMSO and 0.5% suspended in Tylose are administered perorally by means of a stomach tube to Syrian golden hamsters bred in-house. For the determination of the CETP activity, before the start of the experiment blood is taken by retro-orbital puncture (about 250 μl). The test substances are then administered perorally by means of a stomach tube. The control animals receive identical volumes of solvent without test substance. […]
Clotting is terminated by incubation of 4° C. overnight, then centrifugation is carried out for 10 minutes at 6000×g. The content of cholesterol and triglycerides in the serum thus obtained is determined with the aid of modified commercially obtainable enzymatic tests (Ecolin 25 Cholesterol, 1.14830.0001 Merck Diagnostica; Ecoline 25 Triglycerides, 1.14856.0001 Merck Diagnostica). […]
10 μl of serum dilution are treated with 200 μl of Ecoline 25 reagent in 96-hole plates and incubated for 10 minutes at room temperature. The optical density is then determined at a wavelength of 490 nm using an automatic plate reader. The triglyceride or cholesterol concentration contained in the samples is determined with the aid of a standard curve measured in parallel. […]

[2] abbreviates: 1 h after administration, read-out: % inhibition at 30 mg/kg 1 h.
Where [3] appears, read: 3 h after administration, read-out: % inhibition at 30 mg/kg 3 h.
Setting [4] is: 6 h after administration, read-out: % inhibition at 30 mg/kg 6 h.

`COc1c([C@@H](O)CC(C)(C)C)ccc2c1C(=O)OCc1c(Cl)c(C)c(C)c(OC(=O)C3(C)C4CCC3CC4)c1O2` (stereo partly drawn) [Example C-72]: on CETP, the half-maximal inhibitory concentration (IC50) stood at 30 nM. The “% increase of HDL after 4 d (dose: 4 × 30 mg/kg)” value with HDL came to 68%.
As for `COc1c([C@@H](O)CC(C)(C)C)ccc2c1C(=O)OCc1c(Cl)c(C)c(Br)c(OC(=O)C3(C)C4CCC3CC4)c1O2` (stereo partly drawn) [Example C-63], the inhibition at 30 mg/kg in test [1] (setting [2]) is 83%; in test [1] (setting [3]), 65%; in test [1] (setting [4]), 48%. For the same compound, the “% increase of HDL after 24 h (dose: 2 × 30 mg/kg)” value in the test with HDL cholesterol came to 17%. On CETP, the half-maximal inhibitory concentration (IC50) came out at 32 nM.
Take `CCc1c(C)c(Cl)c2c(c1OC(=O)C1(C)C3CCC1CC3)Oc1ccc([C@@H](O)CC(C)(C)C)c(OC)c1C(=O)OC2` (stereo partly drawn) [Example C-73]: the inhibition at 30 mg/kg in test [1] (setting [2]) amounted to 91%; in test [1] (setting [3]), 81%; in test [1] (setting [4]), 56%. The IC50 on CETP was 15 nM. Further, the “% increase of HDL after 4 d (dose: 4 × 30 mg/kg)” value with HDL came to 56%.
